From patent US20260250318A1, “COMPOSITIONS AND METHODS FOR CROSSING THE BLOOD BRAIN BARRIER” (VOYAGER THERAPEUTICS, INC., priority 2022, published 2026)

Experiments:
[1] = system: brains, heart, liver, muscle, and DRG of the NHPs; test: Maturation of TTM-001 and TTM-002 capsids, NGS enrichment in NHP tissues; format: in vivo; conditions: relative to AAV9 control
Summary of the method: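 Variants carry mutations within and flanking the loop IV peptide insert: positions 450–466 were triplet-randomized, while positions 449–466 received low-frequency point mutations. The combined pool went into two NHPs, and each peptide was scored by NGS enrichment ratio against AAV9.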

[2] = system: brain; test: Matured TTM-001 and TTM-002 variants, NGS enrichment in mouse brain; format: in vivo, mice; conditions: relative to AAV9 control
[3] = NGS fold-enrichment of matured AAV capsid variants, NHP brain, RNA
[4] = NGS fold-enrichment, DRG of NHPs
[5] = NGS fold-enrichment, RNA, brain of NHPs
[6] = NGS fold-enrichment, heart of NHPs
[7] = NGS fold-enrichment, liver DNA of NHPs
[8] = NGS fold-enrichment, liver RNA of NHPs
[9] = NGS fold-enrichment, muscle of NHPs
[10] = NGS fold-enrichment, brain of mice
[11] = NGS fold-enrichment of RNA, NHP brain
[12] = NGS fold-enrichment, NHP liver DNA
[13] = NGS fold-enrichment, NHP liver RNA
[14] = NGS fold-enrichment, NHP muscle
[15] = NGS fold-enrichment, mouse brain

How did the “Fold Enrichment relative to AAV9, Brain (NHP)” value [1, 3] turn out when KTINGSGSPHSKAQRDIT was run?
Its value is 52.415 fold.

And the “Fold Enrichment relative to AAV9, DRG (NHP)” value ([1]; NHP DRG)?
Its value is 0.098 fold.

What about the “Fold Enrichment relative to AAV9, Heart (NHP)” value ([1]; NHP heart) of the same sequence?
The value was 0.000 fold.

And the “Fold Enrichment relative to AAV9, Liver DNA (NHP)” value ([1]; NHP liver, DNA)?
The value was 0.605 fold.

What about the “Fold Enrichment relative to AAV9, Liver RNA (NHP)” value ([1]; NHP liver, RNA) of the same sequence?
The value was 1.784 fold.

And the “Fold Enrichment relative to AAV9, Muscle (NHP)” value ([1]; NHP muscle)?
The value was 0.008 fold.

What about the “Fold Enrichment relative to AAV9, Brain (Mouse)” value ([2]; mouse brain) of the same sequence?
The value was 88.122 fold.

What does the source list for KTIDGSGSPHSKSQNHQT?
Fold Enrichment relative to AAV9, Brain (NHP) [1, 3]: 51.307 fold; Fold Enrichment relative to AAV9, DRG (NHP) ([1]; NHP DRG): 0.000 fold; Fold Enrichment relative to AAV9, Heart (NHP) ([1]; NHP heart): 0.000 fold; Fold Enrichment relative to AAV9, Liver DNA (NHP) ([1]; NHP liver, DNA): 0.269 fold; Fold Enrichment relative to AAV9, Liver RNA (NHP) ([1]; NHP liver, RNA): 0.000 fold; Fold Enrichment relative to AAV9, Muscle (NHP) ([1]; NHP muscle): 0.000 fold; Fold Enrichment relative to AAV9, Brain (Mouse) ([2]; mouse brain): 63.174 fold

With KTINGSGSPHSKAQNTYA as the sequence, how does the “Fold Enrichment relative to AAV9, DRG (NHP)” value [1, 4] read?
Its value is 0.000 fold.

And the “Fold Enrichment relative to AAV9, Brain (NHP)” value [1, 5]?
The value was 59.603 fold.

What about the “Fold Enrichment relative to AAV9, Heart (NHP)” value [1, 6] of the same sequence?
Its value is 0.000 fold.

And the “Fold Enrichment relative to AAV9, Liver DNA (NHP)” value [1, 7]?
The value was 0.346 fold.

What about the “Fold Enrichment relative to AAV9, Liver RNA (NHP)” value [1, 8] of the same sequence?
Its value is 0.425 fold.

What about the “Fold Enrichment relative to AAV9, Muscle (NHP)” value [1, 9] of the same sequence?
Its value is 0.000 fold.

And the “Fold Enrichment relative to AAV9, Brain (Mouse)” value [2, 10]?
Its value is 101.715 fold.

Which results are given for KTESRHDSPHKSGQNQQT?
Fold Enrichment relative to AAV9, Brain (NHP) [1, 11]: 81.766 fold; Fold Enrichment relative to AAV9, DRG (NHP) ([1]; NGS fold-enrichment, NHP DRG): 0.000 fold; Fold Enrichment relative to AAV9, Heart (NHP) ([1]; NGS fold-enrichment, NHP heart): 0.011 fold; Fold Enrichment relative to AAV9, Liver DNA (NHP) [1, 12]: 0.036 fold; Fold Enrichment relative to AAV9, Liver RNA (NHP) [1, 13]: 0.052 fold; Fold Enrichment relative to AAV9, Muscle (NHP) [1, 14]: 0.000 fold; Fold Enrichment relative to AAV9, Brain (Mouse) [2, 15]: 6.975 fold

For KTINGSGSPHSKAPSMQT, which “Fold Enrichment relative to AAV9, Brain (NHP)” value [1, 3] is on record?
Its value is 50.249 fold.

And the “Fold Enrichment relative to AAV9, DRG (NHP)” value ([1]; NHP DRG)?
The value was 0.000 fold.

And the “Fold Enrichment relative to AAV9, Heart (NHP)” value ([1]; NHP heart)?
The value was 0.000 fold.

What about the “Fold Enrichment relative to AAV9, Liver DNA (NHP)” value ([1]; NHP liver, DNA) of the same sequence?
The value was 0.460 fold.

What about the “Fold Enrichment relative to AAV9, Liver RNA (NHP)” value ([1]; NHP liver, RNA) of the same sequence?
The value was 0.941 fold.

What about the “Fold Enrichment relative to AAV9, Muscle (NHP)” value ([1]; NHP muscle) of the same sequence?
The value was 0.004 fold.

What about the “Fold Enrichment relative to AAV9, Brain (Mouse)” value ([2]; mouse brain) of the same sequence?
Its value is 75.504 fold.

KTINGHDSPHKSGQSKQA was tested. Which “Fold Enrichment relative to AAV9, Brain (NHP)” value [1, 11] did it give?
Its value is 101.460 fold.

And the “Fold Enrichment relative to AAV9, DRG (NHP)” value ([1]; NGS fold-enrichment, NHP DRG)?
Its value is 0.000 fold.

What about the “Fold Enrichment relative to AAV9, Heart (NHP)” value ([1]; NGS fold-enrichment, NHP heart) of the same sequence?
The value was 0.222 fold.

And the “Fold Enrichment relative to AAV9, Liver DNA (NHP)” value [1, 12]?
The value was 0.114 fold.

And the “Fold Enrichment relative to AAV9, Liver RNA (NHP)” value [1, 13]?
Its value is 0.185 fold.

What about the “Fold Enrichment relative to AAV9, Muscle (NHP)” value [1, 14] of the same sequence?
The value was 0.000 fold.

And the “Fold Enrichment relative to AAV9, Brain (Mouse)” value [2, 15]?
Its value is 7.510 fold.

For KTINGGGSPHSKAQNQQC, which “Fold Enrichment relative to AAV9, Brain (NHP)” value [1, 11] is on record?
Its value is 89.301 fold.

And the “Fold Enrichment relative to AAV9, DRG (NHP)” value [1, 4]?
Its value is 0.219 fold.

What about the “Fold Enrichment relative to AAV9, DRG (NHP)” value ([1]; NGS fold-enrichment, NHP DRG) of the same sequence?
Its value is 0.219 fold.

What about the “Fold Enrichment relative to AAV9, Heart (NHP)” value ([1]; NGS fold-enrichment, NHP heart) of the same sequence?
The value was 0.000 fold.

What about the “Fold Enrichment relative to AAV9, Liver DNA (NHP)” value [1, 12] of the same sequence?
The value was 0.319 fold.

And the “Fold Enrichment relative to AAV9, Liver RNA (NHP)” value [1, 13]?
Its value is 0.287 fold.

What about the “Fold Enrichment relative to AAV9, Muscle (NHP)” value [1, 14] of the same sequence?
Its value is 0.000 fold.

And the “Fold Enrichment relative to AAV9, Brain (NHP)” value [1, 5]?
Its value is 89.301 fold.

And the “Fold Enrichment relative to AAV9, Heart (NHP)” value [1, 6]?
Its value is 0.000 fold.

And the “Fold Enrichment relative to AAV9, Liver DNA (NHP)” value [1, 7]?
Its value is 0.319 fold.

And the “Fold Enrichment relative to AAV9, Liver RNA (NHP)” value [1, 8]?
The value was 0.287 fold.

What about the “Fold Enrichment relative to AAV9, Muscle (NHP)” value [1, 9] of the same sequence?
Its value is 0.000 fold.

And the “Fold Enrichment relative to AAV9, Brain (Mouse)” value [2, 10]?
Its value is 53.840 fold.

And the “Fold Enrichment relative to AAV9, Brain (Mouse)” value [2, 15]?
The value was 53.840 fold.

With KTINGSGSPHSKRLEQQT as the sequence, how does the “Fold Enrichment relative to AAV9, Brain (NHP)” value [1, 3] read?
The value was 53.512 fold.

And the “Fold Enrichment relative to AAV9, DRG (NHP)” value ([1]; NHP DRG)?
Its value is 0.000 fold.

What about the “Fold Enrichment relative to AAV9, Heart (NHP)” value ([1]; NHP heart) of the same sequence?
The value was 0.118 fold.

What about the “Fold Enrichment relative to AAV9, Liver DNA (NHP)” value ([1]; NHP liver, DNA) of the same sequence?
The value was 0.292 fold.

And the “Fold Enrichment relative to AAV9, Liver RNA (NHP)” value ([1]; NHP liver, RNA)?
The value was 0.161 fold.

What about the “Fold Enrichment relative to AAV9, Muscle (NHP)” value ([1]; NHP muscle) of the same sequence?
The value was 0.003 fold.

And the “Fold Enrichment relative to AAV9, Brain (Mouse)” value ([2]; mouse brain)?
The value was 71.704 fold.

KTVNGHDSPHKSGQNLLT was tested. Which “Fold Enrichment relative to AAV9, Brain (NHP)” value [1, 11] did it give?
Its value is 83.969 fold.

And the “Fold Enrichment relative to AAV9, DRG (NHP)” value ([1]; NGS fold-enrichment, NHP DRG)?
The value was 0.114 fold.

What about the “Fold Enrichment relative to AAV9, Heart (NHP)” value ([1]; NGS fold-enrichment, NHP heart) of the same sequence?
The value was 0.040 fold.

What about the “Fold Enrichment relative to AAV9, Liver DNA (NHP)” value [1, 12] of the same sequence?
Its value is 0.035 fold.

And the “Fold Enrichment relative to AAV9, Liver RNA (NHP)” value [1, 13]?
Its value is 0.000 fold.

What about the “Fold Enrichment relative to AAV9, Muscle (NHP)” value [1, 14] of the same sequence?
Its value is 0.023 fold.

And the “Fold Enrichment relative to AAV9, Brain (Mouse)” value [2, 15]?
Its value is 18.894 fold.

Which “Fold Enrichment relative to AAV9, Brain (NHP)” value [1, 3] does the source give for KTEYNSGSPHSKAQNQQT here?
The value was 50.256 fold.

And the “Fold Enrichment relative to AAV9, DRG (NHP)” value ([1]; NHP DRG)?
Its value is 0.000 fold.

And the “Fold Enrichment relative to AAV9, Heart (NHP)” value ([1]; NHP heart)?
The value was 0.000 fold.

What about the “Fold Enrichment relative to AAV9, Liver DNA (NHP)” value ([1]; NHP liver, DNA) of the same sequence?
Its value is 0.009 fold.

What about the “Fold Enrichment relative to AAV9, Liver RNA (NHP)” value ([1]; NHP liver, RNA) of the same sequence?
The value was 0.000 fold.

What about the “Fold Enrichment relative to AAV9, Muscle (NHP)” value ([1]; NHP muscle) of the same sequence?
Its value is 0.000 fold.

And the “Fold Enrichment relative to AAV9, Brain (Mouse)” value ([2]; mouse brain)?
Its value is 62.679 fold.
